Measured values published in PubChem BioAssay AID2060897 (Molecular Pharmacology Branch, DTP, NCI, 2025).
Each block holds one molecule with its values, some of them ahead of it.

System: 966289-007-R4-J1-PDC complex spheroid viability
Experiment: Anticancer human tumor 966289-007-R4-J1-PDC patient-derived pancreatic adenocarcinoma cell line growth inhibition [RAS]
Details: for viability, T/C: stronger effect = lower value
From the text: RAS pathway inhibitors in Combinations in Complex Spheroids
A high-throughput screen of multi-cell type tumor spheroids was designed to identify active combinations of RAS pathway inhibitors and targeted small molecules. Complex spheroids include a stromal component modeled by human endothelial cells (HUVEC) and fibroblasts modeled by human mesenchymal stem cells (MSCs). The concentration ranges selected for each drug and investigational agent were based upon clinically achievable concentrations if the clinical Cmax of the agent was known.
Compounds. The drugs and investigational agents: abemaciclib (NSC768073), cobimetinib (NSC768068), divarasib (GDC6063, NSC841802), docetaxel (NSC628503), GDC-1971 (RLY-1971, NSC841576), gemcitabine (NSC613327), inavolisib (NSC800729), ipatasertib (NSC767898), KB-0742 (NSC834161), MRTX-1133 (NSC836407), osimertinib (NSC779217), RMC-4630 (NSC839698), RMC-6236 (NSC851965), RMC-6291 (NSC852671), Ro-3306 (NSC812927), sapanisertib (NSC764658), SN-38 (NSC673596), staurosporine (NSC755774), SY5609 (NSC837396), and tovorafenib (DAY101, NSC766906), were obtained from the National Cancer Institute (NCI) Developmental Therapeutics Program Chemical Repository. The FDA-approved anticancer drug set is available from the NCI Developmental Therapeutics Program. […] The stock solutions were prepared in dimethyl sulfoxide (DMSO, Sigma-Aldrich, St. Louis, MO, cat. D2650) at 800-fold the tested concentration and stored at -70 degrees C prior to their use. All drugs and investigational agents were tested over a range starting from a high concentration at or near the clinical Cmax and decreasing in half-log increments. If the clinical Cmax for an agent had not been determined, the highest concentration tested was 10 microM.
Cell Culture. All cells were maintained in an incubator at 37 degrees C and 5% CO2 with 95% humidity. The PDC lines were cultured according to standard operating procedures established by the NCI PDMR. All PDCs were thawed and cultured in Matrigel-coated flasks prepared with a working solution of 1X Ham's F-12 nutrient mix, without supplementation (Invitrogen, Waltham, MA, cat. 11765054), 100 U/mL penicillin-streptomycin (Invitrogen, cat. 15140122), and 2.5% Matrigel (Corning Inc., Corning, NY, cat. 354248) for the first three passages. The 362531-283-R-J2-PDC and 782815-120-R-J1-PDC lines were cultured in 6C/Colon 1B media, which includes advanced DMEM/F-12 (Thermo Fisher Scientific, cat. 12634028), 10 mM HEPES (Thermo Fisher Scientific, cat. 15630080), 1X GlutaMAX supplement (Thermo Fisher Scientific, cat. 35050061), 0.1 mg/mL primocin (InvivoGen, San Diego, CA, cat. ant-pm-2), 10% defined fetal bovine serum, heat inactivated (HyClone Laboratories Inc., Logan, UT, cat. SH30070.03HI), 50% L-WRN conditioned media (ATCC, cat. CRL-3276), 1.25 mM N-Acetyl-L-cysteine (Sigma-Aldrich, cat. A9165), 10 mM nicotinamide (Sigma-Aldrich, cat. N0636), 1X B-27 supplement (Thermo Fisher Scientific, cat. 17504044), 1X N-2 supplement (Thermo Fisher Scientific, cat. 17502048), 50 ng/mL human EGF (Thermo Fisher Scientific, cat. PHG0311), and 10 microM Y-27632 dihydrochloride (Tocris Bioscience, cat. 1254). The K12877-001-R-J1-PDC line was cultured in 6I media, which includes all 6C/Colon 1B media plus 10 ng/mL human FGF-10 (PeproTech, cat. 100-26), 1 ng/mL human FGF-2 (PeproTech, cat. 100-18B), 1 µM prostaglandin E2 (Tocris Bioscience, cat. 2296), […] hydrocortisone (Sigma-Aldrich, cat. H4001), and […] bovine insulin (Sigma-Aldrich, cat. I6634). The K86415-001-R-J1-PDC line was cultured in 6D media, which includes all 6C/Colon 1B media components minus the L-WRN conditioned media. The 485176-168-R4-J1-PDC was cultured in PANC media, which includes all 6C/Colon 1B media plus 100 ng/mL human FGF-10 (PeproTech, cat. 100-26), 500 nM SB-431542 (Selleckchem, cat. S1067), and 10 nM gastrin (Tocris Bioscience, cat. 3006). […]
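Note: spheroids exposed to agents for one week before readout.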
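Throughout, for viability, T/C: percent viability relative to DMSO vehicle control wells as 100%.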

- IC50 (curve of first compound, second compound 0.000949 µM): 1430 nM
- IC50 (curve of first compound, second compound 0.003 µM): 1550 nM
- IC50 (curve of first compound, second compound 0.00949 µM): 1790 nM
- IC50 (curve of first compound, second compound 0.03 µM): 1660 nM
- IC50 (curve of first compound, second compound 0.0949 µM): 1850 nM
- IC50 (curve of first compound, second compound 0.3 µM): 1860 nM
SMILES: CCC(CC)c1cc(NC2CCC(N)C2)n2nccc2n1 (stereo not given) + CCn1c(-c2cc(N3CCN(C)CC3)cnc2C(C)OC)c2c3cc(ccc31)-c1csc(n1)CC(NC(=O)C1CC1C)C(=O)N1CCCC(N1)C(=O)OCC(C)(C)C2
- viability, T/C (second compound 0.000949 µM, first compound 0.0316 µM): 111%
- viability, T/C (second compound 0.000949 µM, first compound 0.1 µM): 89.1%
- viability, T/C (second compound 0.000949 µM, first compound 0.316 µM): 99.3%
- viability, T/C (second compound 0.000949 µM, first compound 1 µM): 71.5%
- viability, T/C (second compound 0.000949 µM, first compound 3.16 µM): 1.75%
- viability, T/C (second compound 0.000949 µM, first compound 10 µM): 1.38%
- viability, T/C (second compound 0.003 µM, first compound 0.0316 µM): 72.2%
- viability, T/C (second compound 0.003 µM, first compound 0.1 µM): 98.3%
- viability, T/C (second compound 0.003 µM, first compound 0.316 µM): 89.2%
- viability, T/C (second compound 0.003 µM, first compound 1 µM): 79.2%
- viability, T/C (second compound 0.003 µM, first compound 3.16 µM): 2.05%
- viability, T/C (second compound 0.003 µM, first compound 10 µM): 1.33%
- viability, T/C (second compound 0.00949 µM, first compound 0.0316 µM): 81.7%
- viability, T/C (second compound 0.00949 µM, first compound 0.1 µM): 103%
- viability, T/C (second compound 0.00949 µM, first compound 0.316 µM): 81.9%
- viability, T/C (second compound 0.00949 µM, first compound 1 µM): 131%
- viability, T/C (second compound 0.00949 µM, first compound 3.16 µM): 1.93%
- viability, T/C (second compound 0.00949 µM, first compound 10 µM): 1.58%
- viability, T/C (second compound 0.03 µM, first compound 0.0316 µM): 72.3%
- viability, T/C (second compound 0.03 µM, first compound 0.1 µM): 86.8%
- viability, T/C (second compound 0.03 µM, first compound 0.316 µM): 92.5%
- viability, T/C (second compound 0.03 µM, first compound 1 µM): 98.9%
- viability, T/C (second compound 0.03 µM, first compound 3.16 µM): 1.68%
- viability, T/C (second compound 0.03 µM, first compound 10 µM): 2.28%
- viability, T/C (second compound 0.0949 µM, first compound 0.0316 µM): 86.2%
- viability, T/C (second compound 0.0949 µM, first compound 0.1 µM): 111%
- viability, T/C (second compound 0.0949 µM, first compound 0.316 µM): 107%
- viability, T/C (second compound 0.0949 µM, first compound 1 µM): 119%
- viability, T/C (second compound 0.0949 µM, first compound 3.16 µM): 1.88%
- viability, T/C (second compound 0.0949 µM, first compound 10 µM): 1.55%
- viability, T/C (second compound 0.3 µM, first compound 0.0316 µM): 75.7%
- viability, T/C (second compound 0.3 µM, first compound 0.1 µM): 116%
- viability, T/C (second compound 0.3 µM, first compound 0.316 µM): 116%
- viability, T/C (second compound 0.3 µM, first compound 1 µM): 117%
- viability, T/C (second compound 0.3 µM, first compound 3.16 µM): 2.08%
- viability, T/C (second compound 0.3 µM, first compound 10 µM): 1.97%

- IC50 (curve of first compound, second compound 0.0316 µM): 6400 nM
- IC50 (curve of first compound, second compound 0.1 µM): 6040 nM
- IC50 (curve of first compound, second compound 0.316 µM): 5610 nM
- IC50 (curve of first compound, second compound 1 µM): 6950 nM
- IC50 (curve of first compound, second compound 3.16 µM): 5640 nM
- IC50 (curve of first compound, second compound 10 µM): 2760 nM
SMILES: CC(C)NCC(C(=O)N1CCN(c2ncnc3c2C(C)CC3O)CC1)c1ccc(Cl)cc1 (stereo not given) + C#Cc1c(F)ccc2cc(O)cc(-c3ncc4c(N5CC6CCC(C5)N6)nc(OCC56CCCN5CC(F)C6)nc4c3F)c12
- viability, T/C (second compound 0.0316 µM, first compound 0.0316 µM): 98.7%
- viability, T/C (second compound 0.0316 µM, first compound 0.1 µM): 111%
- viability, T/C (second compound 0.0316 µM, first compound 0.316 µM): 108%
- viability, T/C (second compound 0.0316 µM, first compound 1 µM): 111%
- viability, T/C (second compound 0.0316 µM, first compound 3.16 µM): 66.9%
- viability, T/C (second compound 0.0316 µM, first compound 10 µM): 39.3%
- viability, T/C (second compound 0.1 µM, first compound 0.0316 µM): 103%
- viability, T/C (second compound 0.1 µM, first compound 0.1 µM): 109%
- viability, T/C (second compound 0.1 µM, first compound 0.316 µM): 124%
- viability, T/C (second compound 0.1 µM, first compound 1 µM): 101%
- viability, T/C (second compound 0.1 µM, first compound 3.16 µM): 66.4%
- viability, T/C (second compound 0.1 µM, first compound 10 µM): 37.4%
- viability, T/C (second compound 0.316 µM, first compound 0.0316 µM): 106%
- viability, T/C (second compound 0.316 µM, first compound 0.1 µM): 103%
- viability, T/C (second compound 0.316 µM, first compound 0.316 µM): 128%
- viability, T/C (second compound 0.316 µM, first compound 1 µM): 102%
- viability, T/C (second compound 0.316 µM, first compound 3.16 µM): 66.6%
- viability, T/C (second compound 0.316 µM, first compound 10 µM): 33.6%
- viability, T/C (second compound 1 µM, first compound 0.0316 µM): 104%
- viability, T/C (second compound 1 µM, first compound 0.1 µM): 106%
- viability, T/C (second compound 1 µM, first compound 0.316 µM): 111%
- viability, T/C (second compound 1 µM, first compound 1 µM): 117%
- viability, T/C (second compound 1 µM, first compound 3.16 µM): 74.6%
- viability, T/C (second compound 1 µM, first compound 10 µM): 38.6%
- viability, T/C (second compound 3.16 µM, first compound 0.0316 µM): 116%
- viability, T/C (second compound 3.16 µM, first compound 0.1 µM): 106%
- viability, T/C (second compound 3.16 µM, first compound 0.316 µM): 114%
- viability, T/C (second compound 3.16 µM, first compound 1 µM): 96.7%
- viability, T/C (second compound 3.16 µM, first compound 3.16 µM): 67.5%
- viability, T/C (second compound 3.16 µM, first compound 10 µM): 33%
- viability, T/C (second compound 10 µM, first compound 0.0316 µM): 110%
- viability, T/C (second compound 10 µM, first compound 0.1 µM): 111%
- viability, T/C (second compound 10 µM, first compound 0.316 µM): 125%
- viability, T/C (second compound 10 µM, first compound 1 µM): 103%
- viability, T/C (second compound 10 µM, first compound 3.16 µM): 43%
- viability, T/C (second compound 10 µM, first compound 10 µM): 26.1%

- IC50 (curve of compound): 145 nM [middle of 4 runs]
SMILES: CC1(O)CCCC1n1c(=O)c(C(F)F)cc2cnc(NC3CCN(S(C)(=O)=O)CC3)nc21 (stereo not given)
- viability, T/C (compound 0.1 µM): 56.9% [middle of 4 runs]
- viability, T/C (compound 0.316 µM): 27.7% [middle of 4 runs]
- viability, T/C (compound 1 µM): 31.8% [middle of 4 runs]
- viability, T/C (compound 3.16 µM): 28.4% [middle of 4 runs]
- viability, T/C (compound 10 µM): 4.66% [middle of 4 runs]
